What was measured:
5-HT2C receptor = target: T1, 5-HT2C receptor (Homo sapiens, UniProt P28335); assay: radioligand ([3H]mesulergine) competitive binding assay for 5-HT2C receptor; details: choroid plexus or recombinant 5-HT2C receptor expressed in CHO-K1 cells; for IC50: read-out: binding affinity to 5-HT2C serotonin receptor expressed as IC50 value; for Ki: read-out: binding affinity to 5-HT2C serotonin receptor, Ki value
T1 construct: expressed in transfected cells; host or cells: CHO-K1 (or COS-7)
T1 sequence (P28335 33-458): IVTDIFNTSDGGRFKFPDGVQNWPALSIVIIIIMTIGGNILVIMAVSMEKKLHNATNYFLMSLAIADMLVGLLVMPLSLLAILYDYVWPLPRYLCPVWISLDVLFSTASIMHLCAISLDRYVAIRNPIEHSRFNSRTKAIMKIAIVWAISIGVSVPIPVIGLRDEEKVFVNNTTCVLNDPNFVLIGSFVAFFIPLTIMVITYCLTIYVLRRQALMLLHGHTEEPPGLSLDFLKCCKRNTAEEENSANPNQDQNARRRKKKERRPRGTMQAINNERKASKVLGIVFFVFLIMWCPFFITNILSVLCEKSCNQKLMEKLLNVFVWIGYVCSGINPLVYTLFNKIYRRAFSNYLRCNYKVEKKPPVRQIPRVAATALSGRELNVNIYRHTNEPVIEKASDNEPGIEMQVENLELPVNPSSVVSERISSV
Experimental: (§1) The effect of the compounds of the present invention on the neurochemical steady state was determined by in vitro investigations such as a radionuclide-marked radioligand binding assay for 5-HT2A (Bonhaus D. W. Br. J. Pharmacol. 1995, 115:622; Saucier C. J. Neurochem. 1997, 68:1998) and 5-HT2C receptors (Wolf W. A. J. Neurochem. 1997, 69:1449), in vitro binding assay for σ1 receptor (Thomson W. and Donn R. Arthritis Res. 2002, 4: 302-306) and by in vivo investigations in a tail suspension test (Vogel H. G. and Vogel W. H. Drug Discovery and Evaluation Pharmacological Assays, Springer 1997, 304), in amphethamine-induced hyperlocomotion in mice (Millan M. J. et al, 1998 J. Pharmacol. Exp. Ther. 287: 167-186), in a forced swim test in mice (Porsolt R. D. et al. Arch. Int. Pharmacodyn. 1977, 229:327-336), in meta-chlorophenyl piperazine (m-CPP) test on rats (Drug Dev. Res. 1989, 18:119-144), and in apomorphine, tryptamine, norepinephrine (ATN) test in rats (Arch. Int. Pharmacodyn. 1977, 227:238-253).
(§2) In Vitro Method for Determining Affinity for Binding to 5-HT2A and 5-HT2C Receptors
(§3) A small concentration of a radioligand having a great affinity for binding to a receptor was incubated with a tissue sample enriched with a certain receptor (1-5 mg of tissue) in a buffered medium (0.2-5 mL). Recombinant human HT2A and HT2C receptors were expressed in CHO-K1 or COS-7 cells and were also used for competitive binding. During incubation the radioligand bound to the receptor. When a binding balance was achieved, the receptors to which the radioligand was bound were separated from those to which said ligand was not bound, and the radioactivity of the receptor/radioligand complex was measured. The interaction of the tested compounds with receptors was tested in competitive binding experiments. Various concentrations of tested compounds were added to the incubation mixture containing a prepared tissue enriched with corresponding receptors and the radioligand. The radioligand binding was inhibited by the test compounds proportionally to the affinity of a certain compound for the receptor and to the concentration of the compound.
The radioligand used for the determination of binding to 5-HT2C receptor was [^3H]mesulergine and the tissue used was choroid plexus or recombinant 5-HT2C receptor expressed in CHO-K1 cells.

5-HT2A receptor = target: T2, 5-HT2A receptor (Homo sapiens, UniProt P28223); assay: radioligand ([3H]-ketanserin) competitive binding assay for 5-HT2A receptor; details: for IC50: human cortex or recombinant 5-HT2A receptor expressed in CHO-K1, read-out: binding affinity to 5-HT2A serotonin receptor expressed as IC50 value; for Ki: human cortex or recombinant 5-HT2A receptor expressed in CHO-K1, read-out: binding affinity to 5-HT2A serotonin receptor, Ki value
T2 construct: expressed in transfected cells; host or cells: CHO-K1 (or COS-7)
Experimental: as §1, §2, §3
The radioligand used for the determination of binding to 5-HT2A receptor was [^3H]-ketanserin and the tissue used was human cortex or recombinant 5-HT2A receptor expressed in CHO-K1.

T2 sequence (P28223 whole entry): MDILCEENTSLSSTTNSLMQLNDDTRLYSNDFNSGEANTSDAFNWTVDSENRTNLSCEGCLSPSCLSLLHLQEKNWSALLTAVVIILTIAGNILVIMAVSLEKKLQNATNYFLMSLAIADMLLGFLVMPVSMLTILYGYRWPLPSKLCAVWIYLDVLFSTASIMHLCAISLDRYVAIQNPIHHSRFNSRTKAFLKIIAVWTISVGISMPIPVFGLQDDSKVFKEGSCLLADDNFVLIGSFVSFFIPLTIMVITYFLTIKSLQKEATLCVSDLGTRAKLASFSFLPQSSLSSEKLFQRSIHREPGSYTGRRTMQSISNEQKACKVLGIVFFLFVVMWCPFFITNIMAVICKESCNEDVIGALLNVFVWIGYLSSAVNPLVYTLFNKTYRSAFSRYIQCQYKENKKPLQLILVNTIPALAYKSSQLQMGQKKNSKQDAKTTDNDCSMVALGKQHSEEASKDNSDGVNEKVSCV

| IC50 (5-HT2C receptor) [nM] | Ki (5-HT2C receptor) [nM] | IC50 (5-HT2A receptor) [nM] | Ki (5-HT2A receptor) [nM] | SMILES |
| --- | --- | --- | --- | --- |
| < 200 | < 100 | < 200 | < 100 | Cc1onc2c1-c1ccccc1Sc1ccccc1-2 [Compound 1, 3-Methyl-2-oxa-8-thia-1-aza-dibenzo[e,h]azulene] |
| < 200 | < 100 | < 200 | < 100 | CN(C)CCCOCc1onc2c1-c1ccccc1Sc1ccccc1-2 [Compound 7, Dimethyl-[3-(2-oxa-8-thia-1-aza-dibenzo[e,h]azulen-3-ylmethoxy)-propyl]-amine] |
